We go through 74 substances from PMC4865845, “A human genome-wide loss-of-function screen identifies effective chikungunya antiviral drugs” (Nature Communications, 2016).

In the series the test system is CHIKV. The series is classed as cell-based, chikungunya virus.
“Hs_AP3S2_1 (TGGGATGGTGTTGGAAACAAA; chemistry not given here)” returned a Score_si2 of 1.11.

Substance “Hs_UMPS_4 (AAGCTTCTCAGGCTTATGCAA; chemistry not given here)” yielded a Score_si3 of 1.59.

“s12382 (sense GATCCGAGCTAAAATCCCA; chemistry not given here)”: the Score_si2 is 1.86.

Take “Hs_BRD8_4 (CCGGCTGTCTCCACTACTGAA; chemistry not given here)”: the Score_si1 worked out at 2.93.

For the substance “Hs_LBX1_2 (sense CAAGGCCGAGATGACTTCCAA; chemistry not given here)”, the Score_si1 is 2.

Substance “s17590 (CAACAGTTCTCAGACCAAA; chemistry not given here) [reference compound]” returned a Score_si2 of -0.8.

With “Hs_ODZ3_2 (CCCAAATTTGATTTAACAGAA; chemistry not given here)”, the Score_si4 was 0.82.

Substance “Hs_TGIF_4 (sense TACCACTGTGACTGCATTGAA; chemistry not given here)” showed a Score_si4 of 0.65.

In turn, “s31181 (CCACTCGTTTTGACTATTA; chemistry not given here)” had a Score_si4 of 1.82.

In the case of “Hs_MAZ_2 (CCGCGACGTCTACCACCTGAA; chemistry not given here)”, the Score_si1 was 2.43.

In turn, “Hs_APPL_3 (TAGGAATAGGATAATGATATA; chemistry not given here) [reference compound]” yielded a Score_si2 of -1.06.

“s37714 (GCTCCTCAAAGGATATGAA; chemistry not given here)” yielded a Score_si4 of -0.71.

“s923 (AATTCAAGCTATGAAGATA; chemistry not given here)”: the Score_si2 turned out to be 1.99.

For the substance “s35016 (CCTGATCCACGAGAAGTCA; chemistry not given here)”, the Score_si2 was determined as 1.63.

For “Hs_WDR40A_1 (CAGCATCAATGTGATTAGTAA; chemistry not given here) [reference compound]”, the Score_si1 is listed as -2.68.

In turn, “s12384 (sense TCGTCCTCTTTAACCCTGA; chemistry not given here)” registered a Score_si3 of 1.24.

The substance “s17019 (CCACGTGATAAATCAAGAA; chemistry not given here)” registered a Score_si2 of 1.29.

“Hs_AOF2_3 (ACGAGTTGCCACATTTCGCAA; chemistry not given here)” had a Score_si3 of 1.26.

Consider “Hs_ATF1_7 (CCAATAAATTCTAAATTACAA; chemistry not given here) [reference compound]”, for which the Score_si2 was -1.38.

Regarding “Hs_NRCAM_3 (GACGTTTGGTTTAAAGAATTA; chemistry not given here)”, the Score_si2 was determined as 0.93.

Consider “s38699 (CCAGGAACTATGACACGTA; chemistry not given here)”, for which the Score_si2 came out at 0.75.

Consider “s12470 (sense GGATGTGGACAACAAAGTA; chemistry not given here)”, for which the Score_si4 was 1.56.

In the case of “s25038 (sense GGTCTTTACTAGGTGTATT; chemistry not given here) [reference compound]”, the Score_si4 is given as -0.18.

In the case of “s11586 (sense GGATAGTGTTCTTAGCAAT; chemistry not given here)”, the Score_si4 is reported as 0.13.

For “s16635 (GAGCACTACTTGTACATGA; chemistry not given here)”, the Score_si2 turned out to be 2.02.

Substance “s35332 (CAGGTATTCAGGTCCATGA; chemistry not given here)” displayed a Score_si3 of 0.27.

Turning to “s14705 (sense GCAGTTGAATTATCACAGT; chemistry not given here)”, the Score_si2 is listed as 1.97.

Take “Hs_GP1BB_4 (sense CGAGCTGGTGCTGACCGGCAA; chemistry not given here) [reference compound]”: the Score_si3 is recorded as -0.68.

For the substance “s38778 (CCCTTCCTCTATTCGAACA; chemistry not given here)”, the Score_si4 was -0.27.

For the substance “Hs_ITGB4BP_2 (sense AAGCTACTGTGTCTTCAGCAA; chemistry not given here)”, the Score_si4 stood at 1.08.

The substance “s33582 (CACCTAGAGTACGAAAACA; chemistry not given here)” came in with a Score_si1 of 1.69.

The substance “s12245 (sense CCATCAGGACCACTATTAA; chemistry not given here)” had a Score_si4 of 0.57.

As for “Hs_EEF1A1_1 (CTGGTTAATGATAACAATGCA; chemistry not given here)”, the Score_si3 was 2.24.

The substance “s81 (sense GGATGATTTAGAATTGTCA; chemistry not given here)” came in with a Score_si3 of 2.08.

Consider “Hs_NPAT_1 (ACCAATGCACATATAATTTAA; chemistry not given here) [reference compound]”, for which the Score_si2 is -1.26.

Substance “s18908 (sense GCAGATCACATGAAGAGAA; chemistry not given here)” yielded a Score_si2 of 1.75.

In turn, “Hs_PPP1R8_8 (AACCCTGAAGCTGTAAATGAA; chemistry not given here)” gave a Score_si3 of 0.62.

“s27640 (sense TGAAAAACGTAGAAATGAA; chemistry not given here)” registered a Score_si2 of 1.74.

“s38241 (TCCTTTTCCATGTACCAGA; chemistry not given here)” showed a Score_si4 of 0.18.

“Hs_NRCAM_2 (AACGCTCATAATTAACATCAT; chemistry not given here)” had a Score_si4 of 0.35.

Regarding “s19091 (sense CAACAACCTTACACGAGTA; chemistry not given here) [reference compound]”, the Score_si2 was -0.78.

In turn, “s3114 (GAAGAGCAGTCACAGATCA; chemistry not given here)” had a Score_si2 of 2.05.

“Hs_PTBP1_2 (sense ATGGTATGAGTGTAATCTAAA; chemistry not given here) [reference compound]” registered a Score_si1 of -1.35.

On to “Hs_PITRM1_1 (TAGGTTCTTCACGTACGGTAA; chemistry not given here) [reference compound]”, for which the Score_si1 is -1.2.

“Hs_PCQAP_10 (CAGCATCTAATTAAATTGCAT; chemistry not given here) [reference compound]” had a Score_si3 of -0.74.

With “Hs_WIG1_1 (CAGCATTTAGAGAGCAAGCAA; chemistry not given here)”, the Score_si1 is 2.55.

On to “s50143 (sense AAATAAATCTGGTGCATTA; chemistry not given here) [reference compound]”, for which the Score_si4 is -0.41.

Consider “s8290 (sense GGTGCTAACCGGATAGTAT; chemistry not given here)”, for which the Score_si4 is 0.74.

With “Hs_GRB10_6 (sense CTAGATGACGGGAACACCAAA; chemistry not given here)”, the Score_si4 worked out at 0.5.

For the substance “Hs_RAD51L3_4 (sense CCCAGTAACGCCTGCTGTTTA; chemistry not given here)”, the Score_si4 was found to be 0.33.

For “Hs_PHF10_4 (TCCAGGGAAGACAGAAATCAA; chemistry not given here)”, the Score_si3 was 0.57.

“Hs_GNB2L1_6 (sense AAGGATGGCCAGGCCATGTTA; chemistry not given here)”: the Score_si2 came to 1.62.

Consider “Hs_RXRA_1 (sense TTCGTGTAAGCAAGTACATAA; chemistry not given here)”, for which the Score_si1 stood at 2.2.

With “Hs_CDK4_1 (sense CCGAACTGACCGGGAGATCAA; chemistry not given here)”, the Score_si2 is 1.51.

“Hs_BCHE_2 (CGGGTTGAAAGAGTTATTGTA; chemistry not given here)” displayed a Score_si2 of 0.74.

For “Hs_C15orf15_1 (CAGCATTTGTATAGTAACTAA; chemistry not given here)”, the Score_si1 was found to be 1.89.

On to “Hs_RPS6KC1_3 (sense ACCCTGATGCTGTATAATGTA; chemistry not given here) [reference compound]”, for which the Score_si1 was -2.87.

For “s32095 (CAGAAACGATCTACAAGAA; chemistry not given here)”, the Score_si4 turned out to be 1.53.

As to “s8292 (sense GGATTGTTATCCGACTGAA; chemistry not given here)”, the Score_si3 amounted to 1.63.

“Hs_LOXL2_3 (sense CAGGCAATGAGAAGTCCATTA; chemistry not given here)” returned a Score_si1 of 2.38.

“s8005 (sense CCATGACTCCTGACTACCA; chemistry not given here)” returned a Score_si4 of 0.75.

With “Hs_APPL_2 (CAGGAATTTCTACAATAATAA; chemistry not given here) [reference compound]”, the Score_si1 is -2.3.

The substance “Hs_ROCK1_9 (sense AACGGTTAGAACAAGAGGTAA; chemistry not given here)” registered a Score_si1 of 1.18.

In turn, “s26872 (sense GGGTTGACCTCATCCTCGA; chemistry not given here)” came in with a Score_si4 of 1.69.

“s37713 (GAACCTCCTTCGGGATAAA; chemistry not given here)”: the Score_si3 worked out at 0.52.

With “s33487 (GGTTATCAATGACGAGCAA; chemistry not given here)”, the Score_si3 was 1.7.

“s17901 (GGAAATCGGCCTACAAGAT; chemistry not given here)” returned a Score_si3 of 1.51.

“Hs_GNB2L1_5 (sense TTGGCACACGCTAGAAGTTTA; chemistry not given here)”: the Score_si4 came out at 1.27.

In turn, “Hs_CALM2_7 (CAAAGGAATTGGGAACTGTAA; chemistry not given here)” had a Score_si1 of 3.2.

Substance “s28379 (sense GAGTTACGATTGTACCCTA; chemistry not given here)” displayed a Score_si3 of 1.67.

“Hs_SULF1_3 (sense CTGGTGTTTGCGTACAGTTAA; chemistry not given here) [reference compound]” yielded a Score_si4 of -0.77.

“Hs_LIP8_2 (sense AAGCATATCTTTGAGATGGAA; chemistry not given here)” registered a Score_si1 of 2.14.

Regarding “s28296 (sense CTTCCTCGGTGGAACACGA; chemistry not given here)”, the Score_si2 turned out to be 1.22.

With “s8004 (sense GTGGAGGAATGGTTCAATA; chemistry not given here)”, the Score_si3 amounted to 0.87.
